Laboratory results as given in PubChem BioAssay AID1845203 (Molecular Pharmacology Branch, DTP, NCI, 2023).
Several values for one entry are separate records, joined by “and”; a condition that tells them apart may be missing. Equal values may be shown once.

Tested on: G-401 tumor spheroids, viability % test/control
Experiment: Anticancer human tumor G-401 cell line growth inhibition;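 also: spheroids exposed to compound for 7 days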;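 as to viability, T/C: 100% = DMSO vehicle-treated spheroids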
Conditions: spheroids with HUVEC and MSC; for viability, T/C: stronger effect = lower value
Outline: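 Single agents and combinations were tested on spheroids built from tumor cells plus HUVEC and hMSC, at half-log dilutions starting at or near clinical Cmax, else 10 microM; final DMSO 0.25% (v/v).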

With `COc1cc(C)[nH]c(=O)c1CN1CCc2c(Cl)cc(C(OC)C3COC3)c(Cl)c2C1=O` (configuration not stated) + CC[C@@]1(O)C(=O)OCc2c1cc1n(c2=O)Cc2cc3c(CN(C)C)c(O)ccc3nc2-1 the IC50 (curve of first compound, second compound 0.003 µM) was 0.13 µM, the IC50 (curve of first compound, second compound 0.00949 µM) was < 0.0316 µM and the IC50 (curve of first compound, second compound 0.03 µM) was < 0.0316 µM. The IC50 (curve of first compound, second compound 0.0949 µM) was < 0.0316 µM, the IC50 (curve of first compound, second compound 0.3 µM) was < 0.0316 µM and the viability, T/C (second compound 0.003 µM, first compound 0.0316 µM) was 85.9%. For the same compound, the viability, T/C (second compound 0.003 µM, first compound 0.1 µM) was 52.9%, the viability, T/C (second compound 0.003 µM, first compound 0.316 µM) was 37.2% and the viability, T/C (second compound 0.003 µM, first compound 1 µM) was 31.9%. For the same compound, the viability, T/C (second compound 0.003 µM, first compound 3.16 µM) was 29.3%, the viability, T/C (second compound 0.003 µM, first compound 10 µM) was 23.8% and the viability, T/C (second compound 0.00949 µM, first compound 0.0316 µM) was 49.9%. The viability, T/C (second compound 0.00949 µM, first compound 0.1 µM) was 44.4%, the viability, T/C (second compound 0.00949 µM, first compound 0.316 µM) was 26.1% and the viability, T/C (second compound 0.00949 µM, first compound 1 µM) was 23.6%. For the same compound, the viability, T/C (second compound 0.00949 µM, first compound 3.16 µM) was 23.3%, the viability, T/C (second compound 0.00949 µM, first compound 10 µM) was 19.6% and the viability, T/C (second compound 0.03 µM, first compound 0.0316 µM) was 16%. The viability, T/C (second compound 0.03 µM, first compound 0.1 µM) was 13.7%, the viability, T/C (second compound 0.03 µM, first compound 0.316 µM) was 10.3% and the viability, T/C (second compound 0.03 µM, first compound 1 µM) was 11.8%. For the same compound, the viability, T/C (second compound 0.03 µM, first compound 3.16 µM) was 12%, the viability, T/C (second compound 0.03 µM, first compound 10 µM) was 9.84% and the viability, T/C (second compound 0.0949 µM, first compound 0.0316 µM) was 7.14%. The viability, T/C (second compound 0.0949 µM, first compound 0.1 µM) was 7.77%, the viability, T/C (second compound 0.0949 µM, first compound 0.316 µM) was 7.29% and the viability, T/C (second compound 0.0949 µM, first compound 1 µM) was 6.9%. The viability, T/C (second compound 0.0949 µM, first compound 3.16 µM) was 6.42%, the viability, T/C (second compound 0.0949 µM, first compound 10 µM) was 6.61% and the viability, T/C (second compound 0.3 µM, first compound 0.0316 µM) was 5.24%. The viability, T/C (second compound 0.3 µM, first compound 0.1 µM) was 5.58%, the viability, T/C (second compound 0.3 µM, first compound 0.316 µM) was 5.45% and the viability, T/C (second compound 0.3 µM, first compound 1 µM) was 5.13%. For the same compound, the viability, T/C (second compound 0.3 µM, first compound 3.16 µM) was 5.04% and the viability, T/C (second compound 0.3 µM, first compound 10 µM) was 4.44%.
In the case of `[2H]c1nc(C)nc([2H])c1-c1cc(NC[C@@H](C)c2cccc3c(C(=O)NC)ccnc23)ncn1`, the viability, T/C (compound 0.0316 µM) is reported as 104% and 105% and 96.6%, the viability, T/C (compound 0.1 µM) is reported as 108% and 98.9% and 97.7% and the viability, T/C (compound 0.316 µM) is reported as 103% and 105% and 98.1%. The viability, T/C (compound 1 µM) was 102% and 98.9% and 98.6%, the viability, T/C (compound 3.16 µM) was 105% and 103% and 98.3% and the viability, T/C (compound 10 µM) was 104% and 103% and 98%. For the same compound, the IC50 (curve of compound) was > 10 µM.
For `Cc1cc(C)c(CNC(=O)c2cc(-c3ccc(CN4CCOCC4)cc3)cc3c2cnn3C2CCCC2)c(=O)[nH]1` + Cn1nnc2c(C(N)=O)ncn2c1=O, the IC50 (curve of first compound, second compound 1 µM) was > 10 µM, the IC50 (curve of first compound, second compound 3.16 µM) was > 10 µM and the IC50 (curve of first compound, second compound 10 µM) was > 10 µM. The IC50 (curve of first compound, second compound 31.6 µM) was > 10 µM, the IC50 (curve of first compound, second compound 100 µM) was 8.79 µM and the viability, T/C (second compound 1 µM, first compound 0.0316 µM) was 111%. For the same compound, the viability, T/C (second compound 1 µM, first compound 0.1 µM) was 106%, the viability, T/C (second compound 1 µM, first compound 0.316 µM) was 95.8% and the viability, T/C (second compound 1 µM, first compound 1 µM) was 105%. For the same compound, the viability, T/C (second compound 1 µM, first compound 3.16 µM) was 87.9%, the viability, T/C (second compound 1 µM, first compound 10 µM) was 62.5% and the viability, T/C (second compound 3.16 µM, first compound 0.0316 µM) was 103%. The viability, T/C (second compound 3.16 µM, first compound 0.1 µM) was 104%, the viability, T/C (second compound 3.16 µM, first compound 0.316 µM) was 105% and the viability, T/C (second compound 3.16 µM, first compound 1 µM) was 93.3%. It also gave a viability, T/C (second compound 3.16 µM, first compound 3.16 µM) of 80.6%, a viability, T/C (second compound 3.16 µM, first compound 10 µM) of 55.8% and a viability, T/C (second compound 10 µM, first compound 0.0316 µM) of 103%. It also gave a viability, T/C (second compound 10 µM, first compound 0.1 µM) of 99%, a viability, T/C (second compound 10 µM, first compound 0.316 µM) of 97.1% and a viability, T/C (second compound 10 µM, first compound 1 µM) of 90.1%. For the same compound, the viability, T/C (second compound 10 µM, first compound 3.16 µM) was 82.6%, the viability, T/C (second compound 10 µM, first compound 10 µM) was 53.5% and the viability, T/C (second compound 31.6 µM, first compound 0.0316 µM) was 94.3%. The viability, T/C (second compound 31.6 µM, first compound 0.1 µM) was 94.4%, the viability, T/C (second compound 31.6 µM, first compound 0.316 µM) was 92.9% and the viability, T/C (second compound 31.6 µM, first compound 1 µM) was 91.5%. It also gave a viability, T/C (second compound 31.6 µM, first compound 3.16 µM) of 80.5%, a viability, T/C (second compound 31.6 µM, first compound 10 µM) of 52% and a viability, T/C (second compound 100 µM, first compound 0.0316 µM) of 96.5%. It also gave a viability, T/C (second compound 100 µM, first compound 0.1 µM) of 103%, a viability, T/C (second compound 100 µM, first compound 0.316 µM) of 94.3% and a viability, T/C (second compound 100 µM, first compound 1 µM) of 93.6%. For the same compound, the viability, T/C (second compound 100 µM, first compound 3.16 µM) was 74.2% and the viability, T/C (second compound 100 µM, first compound 10 µM) was 46.9%.
